Test results reported in US11149030B2, “Plants having increased tolerance to herbicides” (BASF AGRO B.V., priority 2016, dated 2021).
Several values for one entry are separate records, joined by “and”; a condition that tells them apart may be missing. Equal entries are not always repeated.

Test system: T2 soybean events expressing the indicated Amaranthus PPO2 variant transgene
Experiment: Soybean PPO inhibitor tolerance testing, injury score (Table C)
Format: in vivo, Soybean cv Jake
Conditions: V2 stage, 3 days after treatment, individual plants
Procedure: Soybean cv Jake is transformed as previously described by Siminszky et al., Phytochem Rev. 5:445-458 (2006). After regeneration, transformants are transplanted to soil in small pots, placed in growth chambers (16 hr day/8 hr night; 25° C. day/23° C. night; 65% relative humidity; 130-150 microE m-2 s-1) and subsequently tested for the presence of the T-DNA via Taqman analysis. After a few weeks, healthy, transgenic positive, single copy events are transplanted to larger pots and allowed to grow in the growth chamber. An optimal shoot for cutting is about 3-4 inches tall, with at least two nodes present. Each cutting is taken from the original transformant (mother plant) and dipped into rooting hormone powder (indole-3-butyric acid, IBA). The cutting is then placed in oasis wedges inside a bio-dome. The mother plant is taken to maturity in the greenhouse and harvested for seed. Wild type cuttings are also taken simultaneously to serve as negative controls. The cuttings are kept in the bio-dome for 5-7 days and then transplanted to 3 inch pots and then acclimated in the growth chamber for two more days. Subsequently, the cuttings are transferred to the greenhouse, acclimated for approximately 4 days prior to spray. […] g ai/ha saflufenacil plus 1% MSO and/or 25-200 g ai/ha 1,5-dimethyl-6-thioxo-3-(2,2,7-trifluoro-3-oxo-4-(prop-2-ynyl)-3,4-dihydro-2H-benzo[b][1,4]oxazin-6-yl)-1,3,5-triazinane-2,4-dione (CAS 1258836-72-4) plus 1% MSO. Other PPO inhibiting herbicides are also tested in a similar fashion for confirming cross resistance: flumioxazin, butafenacil, acifluorfen, lactofen, bifenox, sulfentrazone, methyl 2-[2-chloro-5-[3-chloro-5-(trifluoromethyl)-2-pyridyl]-4-fluoro-phenoxy]-2-methoxy-acetate, ethyl 2-[2-chloro-5-[3-chloro-5-(trifluoromethyl)-2-pyridyl]-4-fluoro-phenoxy]-2-methoxy-acetate, prop-2-ynyl 2-[2-chloro-5-[3-chloro-5-(trifluoromethyl)-2-pyridyl]-4-fluoro-phenoxy]-2-methoxy-acetate and photosynthesis inhibitor diuron as negative control. […]
The following gives a definition of the injury scores measured above: […]

[1] = soybean T2, transgene L397E_F420M, 25 g ai/ha + 1% v/v MSO
[2] = soybean T2, transgene L397E_F420M, 50 g ai/ha + 1% v/v MSO
[3] = soybean T2, transgene L397E_F420M, 100 g ai/ha + 1% v/v MSO
[4] = soybean T2, transgene L397E_F420M, 200 g ai/ha + 1% v/v MSO
[5] = soybean T2, transgene L397Q_F420M, 25 g ai/ha + 1% v/v MSO
[6] = soybean T2, transgene L397Q_F420M, 50 g ai/ha + 1% v/v MSO
[7] = soybean T2, transgene L397Q_F420M, 100 g ai/ha + 1% v/v MSO
[8] = soybean T2, transgene L397Q_F420M, 200 g ai/ha + 1% v/v MSO
[9] = soybean T2, transgene R128A_F420I event 1, 25 g ai/ha + 1% v/v MSO
[10] = soybean T2, transgene R128A_F420I event 1, 50 g ai/ha + 1% v/v MSO
[11] = soybean T2, transgene R128A_F420I event 1, 100 g ai/ha + 1% v/v MSO
[12] = soybean T2, transgene R128A_F420I event 1, 200 g ai/ha + 1% v/v MSO
[13] = soybean T2, transgene R128A_F420I event 2, 25 g ai/ha + 1% v/v MSO
[14] = soybean T2, transgene R128A_F420I event 2, 50 g ai/ha + 1% v/v MSO
[15] = soybean T2, transgene R128A_F420I event 2, 100 g ai/ha + 1% v/v MSO
[16] = soybean T2, transgene R128A_F420I event 2, 200 g ai/ha + 1% v/v MSO
[17] = soybean T2, transgene R128A_F420I event 3, 25 g ai/ha + 1% v/v MSO
[18] = soybean T2, transgene R128A_F420I event 3, 50 g ai/ha + 1% v/v MSO
[19] = soybean T2, transgene R128A_F420I event 3, 100 g ai/ha + 1% v/v MSO
[20] = soybean T2, transgene R128A_F420I event 3, 200 g ai/ha + 1% v/v MSO
[21] = soybean T2, transgene R128A_F420V, 25 g ai/ha + 1% v/v MSO
[22] = soybean T2, transgene R128A_F420V, 50 g ai/ha + 1% v/v MSO
[23] = soybean T2, transgene R128A_F420V, 100 g ai/ha + 1% v/v MSO
[24] = soybean, Non transgenic, 25 g ai/ha + 1% v/v MSO
[25] = soybean, Non transgenic, 50 g ai/ha + 1% v/v MSO
[26] = soybean, Non transgenic, 100 g ai/ha + 1% v/v MSO
[27] = soybean, Non transgenic, 200 g ai/ha + 1% v/v MSO

SMILES | injury on a 0-9 point scale [1] | injury on a 0-9 point scale [2] | injury on a 0-9 point scale [3] | injury on a 0-9 point scale [4] | injury on a 0-9 point scale [5] | injury on a 0-9 point scale [6] | injury on a 0-9 point scale [7] | injury on a 0-9 point scale [8] | injury on a 0-9 point scale [9] | injury on a 0-9 point scale [10] | injury on a 0-9 point scale [11] | injury on a 0-9 point scale [12] | injury on a 0-9 point scale [13] | injury on a 0-9 point scale [14] | injury on a 0-9 point scale [15] | injury on a 0-9 point scale [16] | injury on a 0-9 point scale [17] | injury on a 0-9 point scale [18] | injury on a 0-9 point scale [19] | injury on a 0-9 point scale [20] | other results
C#CCOC(=O)C(OC)Oc1cc(-c2ncc(C(F)(F)F)cc2Cl)c(F)cc1Cl (stereo not shown) [prop-2-ynyl 2-[2-chloro-5-[3-chloro-5-(trifluoromethyl)-2-pyridyl]-4-fluoro-phenoxy]-2-methoxy-acetate] | 1 and 0 and 9 | 0 (2×) and 1 | 1 | 3 (2×) and 4 | 0 | 2 and 1 and 0 | 1 and 2 (2×) | 1 (2×) and 2 | 0 | 2 and 3 and 4 | 5 | 5 (2×) and 4 | 0 | 2 (2×) and 3 | 4 (2×) and 5 | 5 | 0 | 2 | 1 | 3 and 4 | injury on a 0-9 point scale [21]: 2; injury on a 0-9 point scale [22]: 4 (2×) and 5; injury on a 0-9 point scale [23]: 4; injury on a 0-9 point scale [24]: 9; injury on a 0-9 point scale [25]: 9; injury on a 0-9 point scale [26]: 9; injury on a 0-9 point scale [27]: 9
CCOC(=O)C(OC)Oc1cc(-c2ncc(C(F)(F)F)cc2Cl)c(F)cc1Cl (stereo not shown) [ethyl 2-[2-chloro-5-[3-chloro-5-(trifluoromethyl)-2-pyridyl]-4-fluoro-phenoxy]-2-methoxy-acetate] | 0 (2×) and 9 | 0 (2×) and 2 | 3 (2×) and 9 | 4 and 3 and 5 | 1 and 9 | 9 and 3 and 2 | 2 | 2 and 9 | 0 (2×) and 1 | 0 (2×) and 1 | 4 | 4 (2×) and 5 | 2 and 5 and 1 | 1 and 2 | 5 and 9 | 7 and 4 (2×) | 1 | 1 | 3 and 2 | 3 (2×) and 4 | injury on a 0-9 point scale [21]: 0; injury on a 0-9 point scale [22]: 5; injury on a 0-9 point scale [23]: 4; injury on a 0-9 point scale (soybean T2, transgene R128A_F420V, 200 g ai/ha + 1% v/v MSO): 4 and 5; injury on a 0-9 point scale [24]: 9; injury on a 0-9 point scale [25]: 9; injury on a 0-9 point scale [26]: 9; injury on a 0-9 point scale [27]: 9
